Format in all cases: in vivo
For assay [1], the system named is diamondback moths (Plutella xylostella). Put plainly: Insecticidal test against diamondback moth (leaf dip). The note with it: foliar, 144 h, read-out: insecticidal rate (rate of dead insects). The procedure: (§1) A 10% emulsifiable concentrate (depending on the compounds, 25% wettable powder was applied for the test) of the compound of the present invention was diluted with water containing a spreading agent to prepare a chemical solution with a concentration of 100 ppm. To the chemical solution was dipped leaves of Chinese olive for about 10 seconds, and after air-drying, they were placed in a laboratory dish, then, 10 diamondback moths (Plutella xylostella) with second instar larvae per the dish were released therein, and the dish was covered with a lid having holes and contained at a thermostat chamber at 25° C. A number of dead insect(s) after 6 days was counted and a rate of dead insects was calculated in the same manner as in Test Example 1. Incidentally, the test was carried out with two districts.

For assay [2], the system named is Common cutworms (Spodoptera litura). Put plainly: Insecticidal test against common cutworm (leaf dip). The note with it: foliar, 144 h, read-out: insecticidal rate (rate of dead insects). The procedure: as §1, with “10 Common cutworms (Spodoptera litura)” for “10 diamondback moths (Plutella xylostella)”, “calculated by” for “calculated in”, “the following calculation formula.” for “the same manner as in Test Example 1.”, “districts. Rate of dead insects (%)=(Number of dead insects/Number of released insects)×100” for “districts.”

Assay [3] concerns Common cutworm (Spodoptera litura). Put plainly: Insecticidal test (comparative test) against common cutworm, third instar larvae. The note with it: leaf dip, counted after 6 days. As for the experimental part:
10% emulsifiable concentrates of the compound of the present invention and comparative compound were diluted with water containing a spreading agent to prepare chemical solutions with a predetermined concentration. To the chemical solutions was dipped leaves of Chinese olive for about 10 seconds, and after air-drying, they were placed in a laboratory dish, then, 7 Common cutworm (Spodoptera litura) with third instar larvae per the dish were released therein, and the dish was covered with a lid having holes and contained at a thermostat chamber at 25° C. Artificial feed (1 cm^3) was added after 2 days, a number of dead insect(s) was counted after 6 days and a rate of dead insects was calculated by the following calculation formula. Incidentally, the test was carried out with two districts. Rate of dead insects (%)=(Number of dead insects/Number of released insects)×100

The mark [4] stands for this setting: 100 ppm, leaf dip, second instar larvae, after 6 days, 25° C.

Structures are written as SMILES. Like-named read-outs stand apart in the source and are kept apart here.

Regarding `Cc1cc(C(O)(c2ccc3c(c2)OC(F)(F)C(F)(F)O3)C(F)(F)F)ccc1NC(=O)c1cccc(I)c1C(=O)NC(C)C` (stereo not shown) [1-028, N^1-[4-[2,2,2-trifluoro-1-hydroxy-1-(2,2,3,3-tetrafluoro-1,4-dioxa-2,3-dihydronaphthalen-6-yl)ethyl]-2-methylphenyl]-3-iodo-N^2-isopropylphthalic diamide], the pest or weed control at 100 ppm is 100% in assay [1] and at least 80% in assay [2].

With `CSCC(C)NC(=O)c1c(I)cccc1C(=O)Nc1ccc(C(O)(c2ccc(Cl)cc2)C(F)(F)F)cc1C` (stereo not shown) [1-036], the “Rate of dead insects” value in assay [3] (concentration 0.1 ppm) is on record as 14.3%; in assay [3] (concentration 0.3 ppm) it was 28.6%; in assay [3] (concentration 1 ppm) it was 85.7%; in assay [3] (concentration 3 ppm), 100%; in assay [3] (concentration 10 ppm) it was 100%; in assay [3] (concentration 33 ppm), 100%.

In the case of `CSCC(C)(C)NC(=O)c1c(I)cccc1C(=O)Nc1ccc(C(O)(c2ccc(Cl)cc2)C(F)(F)F)cc1C` (stereo not shown) [1-084], the “Rate of dead insects” value is listed as 0% in assay [3] (concentration 0.3 ppm); 21.3% in assay [3] (concentration 1 ppm); 71.4% in assay [3] (concentration 3 ppm); 100% in assay [3] (concentration 10 ppm); 100% in assay [3] (concentration 33 ppm).

Turning to `Cc1cc(C(O)(c2ccc(Cl)cc2)C(F)(F)F)ccc1NC(=O)c1cccc(I)c1C(=O)NC(C)(C)CS(C)(=O)=O` (stereo not shown) [1-087], the “Rate of dead insects” value in assay [3] (concentration 0.1 ppm) came to 0%; in assay [3] (concentration 0.3 ppm), 21.3%; in assay [3] (concentration 1 ppm), 71.4%; in assay [3] (concentration 3 ppm), 100%; in assay [3] (concentration 10 ppm), 100%; in assay [3] (concentration 33 ppm) it was 100%.

In the case of `CSCC(C)(C)NC(=O)c1c(I)cccc1C(=O)Nc1ccc(C(O)c2ccc(Cl)cc2)cc1C` (stereo not shown) [Comparative compound A, reference compound], the “Rate of dead insects” value in assay [3] (concentration 33 ppm) is 0%.

`Cc1cc(C(O)(c2ccc(OC(F)(F)F)cc2)C(F)(F)F)ccc1NC(=O)c1cccc(I)c1C(=O)NC(C)C` (stereo not shown) [Compound No. 1-009, N^1-[4-[2,2,2-trifluoro-1-hydroxy-1-(4-trifluoromethoxyphenyl)ethyl]-2-methylphenyl]-3-iodo-N^2-isopropylphthalic diamide]: the pest or weed control at 100 ppm in assay [1] was 100%; in assay [2] it was at least 80%.

As for `Cc1cc(C(O)(c2ccc(OS(C)(=O)=O)cc2)C(F)(F)F)ccc1NC(=O)c1cccc(I)c1C(=O)NC(C)C` (stereo not shown) [Compound No. 1-015, N^1-[4-[2,2,2-trifluoro-1-hydroxy-1-(4-methanesulfonyloxyphenyl)ethyl]-2-methylphenyl]-3-iodo-N^2-isopropylphthalic diamide], the pest or weed control at 100 ppm in assay [1] was 100%; in assay [2], at least 80%.

In the case of `Cc1cc(C(O)(COc2ccc(Cl)cc2)C(F)(F)F)ccc1NC(=O)c1cccc(I)c1C(=O)NC(C)C` (stereo not shown) [Compound No. 2-004, N^1-[4-[2-(4-chlorophenoxy)-1-hydroxy-1-trifluoromethylethyl]-2-methylphenyl]-3-iodo-N^2-isopropylphthalic diamide], the pest or weed control at 100 ppm in assay [1] (setting [4]) was 100%; in assay [2] (setting [4]), at least 80%.

Take `Cc1cc(C(O)(C(F)(F)F)C(F)(F)Oc2ccc(Cl)cc2)ccc1NC(=O)c1cccc(I)c1C(=O)NC(C)C` (stereo not shown) [Compound No. 2-008, N^1-[4-[2-(4-chlorophenoxy)-2,2-difluoro-1-hydroxy-1-trifluoromethylethyl]-2-methylphenyl]-3-iodo-N^2-isopropylphthalic diamide]: the pest or weed control at 100 ppm was 100% in assay [1] (setting [4]) and at least 80% in assay [2] (setting [4]).

As to `Cc1cc(C(O)(C=Cc2ccc(Cl)cc2)C(F)(F)F)ccc1NC(=O)c1cccc(I)c1C(=O)NC(C)C` (stereo not shown) [Compound No. 2-018, N^1-[4-[3-(4-chlorophenyl)-1-hydroxy-1-trifluoromethyl-2-propenyl]-2-methylphenyl]-3-iodo-N^2-isopropylphthalic diamide], the values for the pest or weed control at 100 ppm in assay [1] (setting [4]) and in assay [2] (setting [4]) were 100% and at least 80%, respectively.

Turning to `COC(c1ccc(Cl)cc1)(c1ccc(NC(=O)c2cccc(I)c2C(=O)NC(C)C)c(C)c1)C(F)(F)F` (stereo not shown) [Compound No. 3-002, N^1-[4-[1-(4-chlorophenyl)-2,2,2-trifluoro-1-methoxyethyl]-2-methylphenyl]-3-iodo-N^2-isopropylphthalic diamide], the pest or weed control at 100 ppm in assay [1] is 100%; in assay [2], at least 80%.

Regarding `Cc1cc2c(cc1NC(=O)c1cccc(I)c1C(=O)NC(C)C)OC(F)(F)C2(O)C(F)(F)F` (stereo not shown) [Compound No. 4-002, N^1-(2,2-difluoro-3-hydroxy-5-methyl-3-trifluoromethyl-2,3-dihydrobenzofuran-6-yl)-3-iodo-N^2-isopropylphthalic diamide], the pest or weed control at 100 ppm was 100% in assay [1] (setting [4]) and at least 80% in assay [2] (setting [4]).

(Values after patent US20070043011A1, “Substituted benzanilide compound and noxious organism controlling agent” (priority 2003, published 2007).)
